From patent US4742045A, “Glycopeptide antibiotics” (SmithKline Beckman Corporation, priority 1986, dated 1988)
Converted amounts (≈) assume the structure as drawn.

Columns and labels:
Staphylococcus aureus = assay: standard microtiter assay, minimum inhibitory concentration; format: cell-based; details: for MIC: Table 5 organism 1 S. aureus
Excerpt: (§1) Representative results of standard microtiter assays are reported in Tables 1, 2 and 3 which follow, as the minimum inhibitory concentration of antibiotic (μg/ml).
(§2) In Table 1, test organisms 1-13 were different strains of Staphylococcus aureus, and 14-16 were different strains of Staphylococcus epidermidis. In Table 2, test organisms 1-5 were different strains of S. aureus; 6, 8, 12 and 14 were different strains of S. epidermidis; 7 was a Staphylococcus haemolyticus; 9 and 10 were different strains of Streptococcus faecalis; 11 was a Streptococcus pyogenes; and 13 was a Staphylococcus saprophyticus. In Table 3, test organisms 1-3 were different strains of S. aureus; 4 and 6 were different strains of S. epidermidis; 5 was a S. haemolyticus and 7 and 8 were different strains of Streptococcus faecalis. Except where individual components are indicated, the CWI-785 antibiotic employed was the CWI-785 complex; in some cases, HCl salts of the CWI-785 antibiotic were employed.
(§3) The number of strains tested is shown in parentheses below each organism. The average MIC is reported in μg/ml.
(§4) In Table 5 are shown data from standard microtiter assays carried out in a presence of no serum, 50% human serum (hum.) and 50% mouse serum (mse.). The test organisms were 1: S. aureus; 2,4 and 5: different strains of S. epidermidis; 3: S. haemolyticus; 6: S. saprophyticus; 7 and 8: different strains of S. faecalis.

Streptococcus faecalis = assay: as above; format: cell-based
Excerpt: as §1, §2, §3, §4

[1] = tested on: Staphylococcus epidermidis; assay: as above; format: cell-based
Excerpt: as §1, §2, §4

[2] = tested on: Staphylococcus haemolyticus; assay: as above; format: cell-based; details: for MIC: Table 5 organism 3 S. haemolyticus
Excerpt: as §1, §2, §4

[3] = tested on: Staphylococcus saprophyticus; assay: as above; format: cell-based; details: for MIC: Table 5 organism 6 S. saprophyticus
Excerpt: as §1, §2, §4

Streptococcus pyogenes = assay: as above; format: cell-based; details: Table 2 test organism 11, Streptococcus pyogenes
Excerpt: as §1, §2

Coag-neg. Staphylococci = assay: MIC against an expanded panel; format: cell-based; details: Table 4, Coag-neg. Staphylococci (24 strains)
Excerpt: as §3

Group A Strep. = assay: MIC against an expanded panel; format: cell-based; details: Table 4, Group A Strep. (6 strains)
Excerpt: as §3

Group B Strep. = assay: MIC against an expanded panel; format: cell-based; details: Table 4, Group B Strep. (4 strains)
Excerpt: as §3

JK Diptheroids = assay: MIC against an expanded panel; format: cell-based; details: Table 4, JK Diptheroids (19 strains)
Excerpt: as §3

Viridans = assay: MIC against an expanded panel; format: cell-based; details: Table 4, Viridans (2 strains)
Excerpt: as §3

S. aureus = assay: mice infected intraperitoneally, dosed 1 hr after infection, ED50; format: in vivo; details: for ED50: antibiotic i.v. 1 hr post infection
Protocol: (§5) The in vivo activity of the CWI-785 complex and its components and hydrolysis products was confirmed by administering selected CWI-785 antibiotics to mice infected with various gram-positive pathogens. In one representative assay, in which mice infected intraperitoneally with 46.8 LD50 's of S. aureus (strain 1, Tables 1 and 2) were dosed once, subcutaneously one hour after infection, the following ED50 's (mg/kg) were observed: CWI-785B: 2.4, CWI-785C: 3.1, CWI-785: 3.8, HPB3: 0.9, vancomycin: 0.7. In a second representative assay carried out as above except that mice were infected with 3.17 LD50 's of S. faecalis (strain 9, Table 2), the following ED50 's were observed: HPB3 hydrochloride: 1.6, HPB4 hydrochloride: 1.6, vancomycin: 2.2, teicoplanin: 1.3.
(§6) In Table 6, below, is shown the ED50 in mg/kg of HPB4 in comparison to vancomycin and teicoplanin. Mice were injected i.p. with the indicated organism and then i.v., 1 hr post infection, with the indicated antibiotic.

S. faecalis = assay: as above; format: in vivo
Protocol: as §5, §6

S. epidermidis = assay: mice infected i.p., antibiotic i.v. 1 hr post infection, ED50; format: in vivo; details: S. epidermidis 2479 (>1000 × LD50) i.p., antibiotic i.v. 1 hr post infection
Protocol: as §6

S. haemolyticus = assay: as above; format: in vivo; details: S. haemolyticus 651 (8 × LD50) i.p., antibiotic i.v. 1 hr post infection
Protocol: as §6

[4] = predicted human half-life; details: in comparison to vancomycin
gram-positive organisms = assay: in vitro antibacterial activity (stated in words); format: cell-based; details: in vitro data
Excerpt: Unless specifically indicated, as used herein, CWI-785B, HPB4 and HPB3 will mean a mixture of epimers. Analogous ' and " epimers of other components of the CWI-785 complex also exist and are included within the scope of the invention.

[5] = Table 4, S. aureus (30 strains)
[6] = Table 4, Strep. faecalis (12 strains)

CNC(C(=O)NC1C(=O)NC(CCSC)C(=O)NC2C(=O)NC3C(=O)NC(C(=O)NC(C(=O)O)c4cc(O)cc(O)c4-c4cc3ccc4O)C(O[C@H]3C[C@@H](N)[C@@H](O)[C@H](C)O3)c3ccc(c(Cl)c3)Oc3cc2cc(c3O)Oc2ccc(cc2)C1O)c1ccc(O)cc1 (stereo partly shown) [HPB4]
minimum inhibitory concentration (Staphylococcus aureus; Table 2 test organism 1, S. aureus strain): 1.6 µg/mL (≈ 1.24 µM)
minimum inhibitory concentration (Staphylococcus aureus; Table 2 test organism 2, S. aureus strain): 0.8 µg/mL (≈ 0.619 µM)
minimum inhibitory concentration (Staphylococcus aureus; Table 2 test organism 3, S. aureus strain): 0.8 µg/mL (≈ 0.619 µM)
minimum inhibitory concentration (Staphylococcus aureus; Table 2 test organism 4, S. aureus strain): 0.8 µg/mL (≈ 0.619 µM)
minimum inhibitory concentration (Staphylococcus aureus; Table 2 test organism 5, S. aureus strain): 0.8 µg/mL (≈ 0.619 µM)
MIC50 (Staphylococcus aureus; [5]): 0.8 µg/mL (≈ 0.619 µM)
MIC RANGE (Staphylococcus aureus; [5]): 0.2 to 0.8 µg/mL
MIC (Staphylococcus aureus; 50% Hum. Serum): 1.6 µg/mL (≈ 1.24 µM)
MIC (Staphylococcus aureus; 50% Mse. Serum): 1.6 µg/mL (≈ 1.24 µM)
MIC (Staphylococcus aureus; No Serum): 1.6 µg/mL (≈ 1.24 µM)
minimum inhibitory concentration (Streptococcus faecalis; Table 2 test organism 9, Streptococcus faecalis strain): 0.8 µg/mL (≈ 0.619 µM)
minimum inhibitory concentration (Streptococcus faecalis; Table 2 test organism 10, Streptococcus faecalis strain): 0.8 µg/mL (≈ 0.619 µM)
MIC50 (Streptococcus faecalis; [6]): 0.4 µg/mL (≈ 0.31 µM)
MIC RANGE (Streptococcus faecalis; [6]): 0.2 to 0.8 µg/mL
MBC50 (Streptococcus faecalis; Table 4, Strep. faecalis MBC50): 12.5 µg/mL (≈ 9.68 µM)
MBC RANGE (Streptococcus faecalis; Table 4, Strep. faecalis MBC50 column): 3.1 to 25 µg/mL
MIC (Streptococcus faecalis; Table 5 organism 7 S. faecalis, 50% Hum. Serum): 3.1 µg/mL (≈ 2.4 µM)
MIC (Streptococcus faecalis; Table 5 organism 7 S. faecalis, 50% Mse. Serum): 3.1 µg/mL (≈ 2.4 µM)
MIC (Streptococcus faecalis; Table 5 organism 7 S. faecalis, No Serum): 0.4 µg/mL (≈ 0.31 µM)
MIC (Streptococcus faecalis; Table 5 organism 8 S. faecalis, 50% Hum. Serum): 3.1 µg/mL (≈ 2.4 µM)
MIC (Streptococcus faecalis; Table 5 organism 8 S. faecalis, 50% Mse. Serum): 3.1 µg/mL (≈ 2.4 µM)
MIC (Streptococcus faecalis; Table 5 organism 8 S. faecalis, No Serum): 0.4 µg/mL (≈ 0.31 µM)
minimum inhibitory concentration ([1]; Table 2 test organism 6, S. epidermidis strain): 1.6 µg/mL (≈ 1.24 µM)
minimum inhibitory concentration ([1]; Table 2 test organism 8, S. epidermidis strain): 3.1 µg/mL (≈ 2.4 µM)
minimum inhibitory concentration ([1]; Table 2 test organism 12, S. epidermidis strain): 1.6 µg/mL (≈ 1.24 µM)
minimum inhibitory concentration ([1]; Table 2 test organism 14, S. epidermidis strain): 0.8 µg/mL (≈ 0.619 µM)
MIC ([1]; Table 5 organism 2 S. epidermidis, 50% Hum. Serum): 3.1 µg/mL (≈ 2.4 µM)
MIC ([1]; Table 5 organism 2 S. epidermidis, 50% Mse. Serum): 3.1 µg/mL (≈ 2.4 µM)
MIC ([1]; Table 5 organism 2 S. epidermidis, No Serum): 1.6 µg/mL (≈ 1.24 µM)
MIC ([1]; Table 5 organism 4 S. epidermidis, 50% Hum. Serum): 3.1 µg/mL (≈ 2.4 µM)
MIC ([1]; Table 5 organism 4 S. epidermidis, 50% Mse. Serum): 3.1 µg/mL (≈ 2.4 µM)
MIC ([1]; Table 5 organism 4 S. epidermidis, No Serum): 3.1 µg/mL (≈ 2.4 µM)
MIC ([1]; Table 5 organism 5 S. epidermidis, 50% Hum. Serum): 3.1 µg/mL (≈ 2.4 µM)
MIC ([1]; Table 5 organism 5 S. epidermidis, 50% Mse. Serum): 1.6 µg/mL (≈ 1.24 µM)
MIC ([1]; Table 5 organism 5 S. epidermidis, No Serum): 0.8 µg/mL (≈ 0.619 µM)
minimum inhibitory concentration ([2]; Table 2 test organism 7, Staphylococcus haemolyticus): 1.6 µg/mL (≈ 1.24 µM)
MIC ([2]; 50% Hum. Serum): 6.3 µg/mL (≈ 4.88 µM)
MIC ([2]; 50% Mse. Serum): 6.3 µg/mL (≈ 4.88 µM)
MIC ([2]; No Serum): 1.6 µg/mL (≈ 1.24 µM)
minimum inhibitory concentration ([3]; Table 2 test organism 13, Staphylococcus saprophyticus): 1.6 µg/mL (≈ 1.24 µM)
MIC ([3]; 50% Hum. Serum): 6.3 µg/mL (≈ 4.88 µM)
MIC ([3]; 50% Mse. Serum): 0.2 µg/mL (≈ 0.155 µM)
MIC ([3]; No Serum): 0.8 µg/mL (≈ 0.619 µM)
minimum inhibitory concentration (Streptococcus pyogenes): 0.2 µg/mL (≈ 0.155 µM)
MIC50 (Coag-neg. Staphylococci): 1.6 µg/mL (≈ 1.24 µM)
MIC RANGE (Coag-neg. Staphylococci): 0.4 to 3.1 µg/mL
MIC50 (Group A Strep.): 0.4 µg/mL (≈ 0.31 µM)
MIC RANGE (Group A Strep.): 0.05 to 0.8 µg/mL
MIC RANGE (Group B Strep.): 0.1 to 0.8 µg/mL
MIC50 (JK Diptheroids): 0.4 µg/mL (≈ 0.31 µM)
MIC RANGE (JK Diptheroids): 0.4 to 0.8 µg/mL
MIC RANGE (Viridans): 0.025 to 0.8 µg/mL
ED50 (S. aureus; S. aureus 2620 (24 × LD50) i.p.): 1.6 mg/kg
ED50 (S. aureus; S. aureus HH 127 (35 × LD50) i.p.): 1.8 mg/kg
in vivo effectiveness relative to HPB4" (S. aureus; against S. aureus 127): fourfold more effective
ED50 (S. faecalis; S. faecalis 34358 (9 × LD50) i.p., antibiotic i.v. 1 hr post infection): 1.0 mg/kg
in vivo effectiveness relative to HPB4" (S. faecalis; against S. faecalis 34358): fourfold more effective
ED50 (S. epidermidis): 2.0 mg/kg
ED50 (S. haemolyticus): 20 mg/kg
human half-life (predicted) [4]: at least 12 hours
in vitro activity relative to the corresponding B" isomer (gram-positive organisms): more active
